According to ChEMBL document CHEMBL4339185 (Eur J Med Chem, 2019):
≈ marks a conversion by molar mass, not a printed value.

How the values were obtained:
Staphylococcus aureus [1] = assay: Antimicrobial activity against methicillin-resistant Staphylococcus aureus incubated for 18 hrs by serial microdilution method; type: functional
Staphylococcus aureus [2] = assay: Antimicrobial activity against Staphylococcus aureus ATCC 6538 incubated for 18 hrs by serial microdilution method; type: functional; settings: ATCC 6538, 18 h
Staphylococcus aureus [3] = assay: Antimicrobial activity against MLSB-resistant Staphylococcus aureus incubated for 18 hrs by serial microdilution method; type: functional
[4] = system: Staphylococcus epidermidis; assay: Antimicrobial activity against Staphylococcus epidermidis ATCC 12228 incubated for 18 hrs by serial microdilution method; type: functional; settings: ATCC 12228, 18 h
[5] = system: Staphylococcus epidermidis; assay: Antimicrobial activity against Staphylococcus epidermidis ATCC 49134 incubated for 18 hrs by serial microdilution method; type: functional; settings: ATCC 49134, 18 h
Enterococcus faecalis [6] = assay: Antimicrobial activity against Enterococcus faecalis ATCC 29212 incubated for 18 hrs by serial microdilution method; type: functional; settings: ATCC 29212, 18 h
Escherichia coli = assay: Antimicrobial activity against Escherichia coli ATCC 25922 incubated for 18 hrs by serial microdilution method; type: functional; settings: ATCC 25922, 18 h
[7] = Solubility of the compound in water at pH 7 by UV-vis spectrophotometric analysis; type: physicochemical
[8] = Lipophilicity, log P of the compound in octanol and water incubated for 1 h under shaking condition; type: physicochemical
Enterococcus faecalis [9] = assay: Potency index, ratio of rifampicin MIC to compound MIC for Enterococcus faecalis ATCC 29212; type: functional
Enterococcus faecalis [10] = assay: Potency index, ratio of rifaximin MIC to compound MIC for Enterococcus faecalis ATCC 29212; type: functional
Staphylococcus aureus [11] = assay: Potency index, ratio of rifampicin MIC to compound MIC for Staphylococcus aureus ATCC 6538; type: functional
Staphylococcus aureus [12] = assay: Potency index, ratio of rifaximin MIC to compound MIC for Staphylococcus aureus ATCC 6538; type: functional
[13] = system: Staphylococcus epidermidis; assay: Potency index, ratio of rifampicin MIC to compound MIC for Staphylococcus epidermidis ATCC 12228; type: functional
[14] = system: Staphylococcus epidermidis; assay: Potency index, ratio of rifaximin MIC to compound MIC for Staphylococcus epidermidis 12228; type: functional
[15] = system: Staphylococcus epidermidis; assay: Potency index, ratio of rifampicin MIC to compound MIC for Staphylococcus epidermidis ATCC 49134; type: functional
[16] = system: Staphylococcus epidermidis; assay: Potency index, ratio of rifaximin MIC to compound MIC for Staphylococcus epidermidis ATCC 49134; type: functional

Row | SMILES | MIC (Staphylococcus aureus [1]) | MIC (Staphylococcus aureus [2]) | MIC (Staphylococcus aureus [3]) | MIC [4] | MIC [5] | MIC (Enterococcus faecalis [6]) | MIC (Escherichia coli) | solubility [7] | logP at 1 h [8] | Ratio (Enterococcus faecalis [9]) | Ratio (Enterococcus faecalis [10]) | Ratio (Staphylococcus aureus [11]) | Ratio (Staphylococcus aureus [12]) | Ratio [13] | Ratio [14] | Ratio [15] | Ratio [16]
1 | CO[C@H]1/C=C/O[C@@]2(C)Oc3c(C)c(O)c4c(O)c(c(/C=N/NC5=NCCN5)c(O)c4c3C2=O)NC(=O)/C(C)=C\C=C\[C@H](C)[C@H](O)[C@@H](C)[C@@H](O)[C@@H](C)[C@H](OC(C)=O)[C@@H]1C | 0.0156 µg/mL (≈ 0.0193 µM) | 0.0078 µg/mL (≈ 0.00965 µM) | 0.0078 µg/mL (≈ 0.00965 µM) | 0.0078 µg/mL (≈ 0.00965 µM) | 0.0078 µg/mL (≈ 0.00965 µM) | 1 µg/mL (≈ 1.24 µM) | > 8 µg/mL | 4250 µg/mL (≈ 5260 µM) | 1.33 | 8 | 8 | 8 | 8 | 8 | 8 | 8 | 8
2 | CO[C@H]1/C=C/O[C@@]2(C)Oc3c(C)c(O)c4c(O)c(c(/C=N/Nc5ccccc5)c(O)c4c3C2=O)NC(=O)/C(C)=C\C=C\[C@H](C)[C@H](O)[C@@H](C)[C@@H](O)[C@@H](C)[C@H](OC(C)=O)[C@@H]1C | 0.5 µg/mL (≈ 0.613 µM) | 0.5 µg/mL (≈ 0.613 µM) | 1 µg/mL (≈ 1.23 µM) | 0.5 µg/mL (≈ 0.613 µM) | 0.25 µg/mL (≈ 0.306 µM) | > 8 µg/mL | > 8 µg/mL | < 50 µg/mL | 2.75 | – | – | – | – | – | – | – | –
3 | CO[C@H]1/C=C/O[C@@]2(C)Oc3c(C)c(O)c4c(O)c(c(CNC5CCN(S(C)(=O)=O)CC5)c(O)c4c3C2=O)NC(=O)/C(C)=C\C=C\[C@H](C)[C@H](O)[C@@H](C)[C@@H](O)[C@@H](C)[C@H](OC(C)=O)[C@@H]1C | 1 µg/mL (≈ 1.13 µM) | 1 µg/mL (≈ 1.13 µM) | 0.5 µg/mL (≈ 0.563 µM) | 0.5 µg/mL (≈ 0.563 µM) | 0.25 µg/mL (≈ 0.282 µM) | > 8 µg/mL | > 8 µg/mL | < 50 µg/mL | 2.34 | – | – | – | – | – | – | – | –
4 | CO[C@H]1/C=C/O[C@@]2(C)Oc3c(C)c(O)c4c(O)c(c(CNC5CCN(C(=O)OC(C)(C)C)CC5)c(O)c4c3C2=O)NC(=O)/C(C)=C\C=C\[C@H](C)[C@H](O)[C@@H](C)[C@@H](O)[C@@H](C)[C@H](OC(C)=O)[C@@H]1C | 0.5 µg/mL (≈ 0.549 µM) | 0.5 µg/mL (≈ 0.549 µM) | 0.5 µg/mL (≈ 0.549 µM) | 0.25 µg/mL (≈ 0.275 µM) | 0.25 µg/mL (≈ 0.275 µM) | 4 µg/mL (≈ 4.4 µM) | > 8 µg/mL | < 50 µg/mL | 2.8 | – | – | – | – | – | – | – | –
5 | CO[C@H]1/C=C/O[C@@]2(C)Oc3c(C)c(O)c4c(O)c(c(CNC5CCCNC5=O)c(O)c4c3C2=O)NC(=O)/C(C)=C\C=C\[C@H](C)[C@H](O)[C@@H](C)[C@@H](O)[C@@H](C)[C@H](OC(C)=O)[C@@H]1C (some centres undefined) | 0.25 µg/mL (≈ 0.303 µM) | 0.5 µg/mL (≈ 0.607 µM) | 0.5 µg/mL (≈ 0.607 µM) | 0.25 µg/mL (≈ 0.303 µM) | 0.25 µg/mL (≈ 0.303 µM) | > 8 µg/mL | > 8 µg/mL | 210 µg/mL (≈ 255 µM) | 1.14 | – | – | – | – | – | – | – | –
6 | CO[C@H]1/C=C/O[C@@]2(C)Oc3c(C)c(O)c4c(O)c(c(CN5CCN(c6ccncc6)CC5)c(O)c4c3C2=O)NC(=O)/C(C)=C\C=C\[C@H](C)[C@H](O)[C@@H](C)[C@@H](O)[C@@H](C)[C@H](OC(C)=O)[C@@H]1C | 2 µg/mL (≈ 2.29 µM) | 2 µg/mL (≈ 2.29 µM) | 2 µg/mL (≈ 2.29 µM) | 0.5 µg/mL (≈ 0.573 µM) | 0.5 µg/mL (≈ 0.573 µM) | > 8 µg/mL | > 8 µg/mL | < 50 µg/mL | 2.06 | – | – | – | – | – | – | – | –
7 | CO[C@H]1/C=C/O[C@@]2(C)Oc3c(C)c(O)c4c(O)c(c(CNCCN5CCCC5=O)c(O)c4c3C2=O)NC(=O)/C(C)=C\C=C\[C@H](C)[C@H](O)[C@@H](C)[C@@H](O)[C@@H](C)[C@H](OC(C)=O)[C@@H]1C | 2 µg/mL (≈ 2.39 µM) | 2 µg/mL (≈ 2.39 µM) | 4 µg/mL (≈ 4.77 µM) | 2 µg/mL (≈ 2.39 µM) | 1 µg/mL (≈ 1.19 µM) | > 8 µg/mL | > 8 µg/mL | 100 µg/mL (≈ 119 µM) | 1.24 | – | – | – | – | – | – | – | –
8 | CO[C@H]1/C=C/O[C@@]2(C)Oc3c(C)c(O)c4c(O)c(c(CN5CCC6(CC5)NCCc5ccccc56)c(O)c4c3C2=O)NC(=O)/C(C)=C\C=C\[C@H](C)[C@H](O)[C@@H](C)[C@@H](O)[C@@H](C)[C@H](OC(C)=O)[C@@H]1C | 8 µg/mL (≈ 8.77 µM) | 8 µg/mL (≈ 8.77 µM) | 8 µg/mL (≈ 8.77 µM) | 2 µg/mL (≈ 2.19 µM) | 2 µg/mL (≈ 2.19 µM) | 4 µg/mL (≈ 4.39 µM) | > 8 µg/mL | < 50 µg/mL | 2.09 | – | – | – | – | – | – | – | –
9 | CO[C@H]1/C=C/O[C@@]2(C)Oc3c(C)c(O)c4c(O)c(c(CNC56CC7CC(CC(C7)C5)C6)c(O)c4c3C2=O)NC(=O)/C(C)=C\C=C\[C@H](C)[C@H](O)[C@@H](C)[C@@H](O)[C@@H](C)[C@H](OC(C)=O)[C@@H]1C | 0.5 µg/mL (≈ 0.581 µM) | 0.5 µg/mL (≈ 0.581 µM) | 0.5 µg/mL (≈ 0.581 µM) | 4 µg/mL (≈ 4.65 µM) | 2 µg/mL (≈ 2.32 µM) | 1 µg/mL (≈ 1.16 µM) | > 8 µg/mL | < 50 µg/mL | 1.91 | – | – | – | – | – | – | – | –
